In ChEMBL document CHEMBL1201862, “PubChem BioAssay data set” (2004):
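Five concentrations, 48 hours, 96-well plates. Here, GI50 denotes the concentration required for 50% inhibition of growth.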 Active and inactive are the calls of the source. No stated cut-off is given here; in the data, active = GI50 up to about 1.1 µM and inactive = higher.

How the values were obtained:
Assay in all cases: growth of human tumour cells (NCI), 48 h
786-0 = test system: 786-0
CAKI-1 = test system: CAKI-1
HCT-116 = test system: HCT-116
HCT-15 = test system: HCT-15
HT-29 = test system: HT-29
K562 = test system: K562
Malme-3M = test system: Malme-3M
NCI-H460 = test system: NCI-H460
OVCAR-8 = test system: OVCAR-8
SK-MEL-2 = test system: SK-MEL-2
SNB-19 = test system: SNB-19
SW-620 = test system: SW-620
UO-31 = test system: UO-31
NCI-H23 = test system: NCI-H23
TK-10 = test system: TK-10
EKVX = test system: EKVX
SR = test system: SR

SMILES	GI50 (786-0)	GI50 (CAKI-1)	GI50 (HCT-116)	GI50 (HCT-15) [µM]	GI50 (HT-29)	GI50 (K562)	GI50 (Malme-3M)	GI50 (NCI-H460)	GI50 (OVCAR-8)	GI50 (SK-MEL-2)	GI50 (SNB-19)	GI50 (SW-620)	GI50 (UO-31)	GI50 (NCI-H23)	GI50 (TK-10)	GI50 (EKVX)	GI50 (SR)
O=C1C=C[C@@]23CC1C(O)C[C@H]2C=Cc1ccccc13 (stereo partly drawn)	> 100 µM (inactive)	> 100 µM (inactive)	> 100 µM (inactive)	82.2	> 100 µM (inactive)	50.2 µM (inactive)	> 100 µM (inactive)	> 100 µM (inactive)	> 100 µM (inactive)	> 100 µM (inactive)	> 100 µM (inactive)	> 100 µM (inactive)	> 100 µM (inactive)	–	–	–	–
O=[N+]([O-])c1cccc(C2=NOC(C3CCCCC3)C2)c1 (stereo not drawn)	> 100 µM (inactive)	–	> 100 µM (inactive)	> 100	82 µM (inactive)	> 100 µM (inactive)	> 100 µM (inactive)	> 100 µM (inactive)	> 100 µM (inactive)	> 100 µM (inactive)	–	> 100 µM (inactive)	> 100 µM (inactive)	> 100 µM (inactive)	> 100 µM (inactive)	–	–
CC1=CCC(O)C=CC(C)C(O)C(C)C=C(C)C(=O)c2c(O)c(C)cc3c2C(=O)C(N)=C(NC(=O)/C=C\C=C/C=CC(C)C(O)CC1=O)C3=O (stereo not drawn)	> 100 µM (inactive)	> 100 µM (inactive)	21.6 µM (inactive)	> 100	> 100 µM (inactive)	> 100 µM (inactive)	30.1 µM (inactive)	–	> 100 µM (inactive)	> 100 µM (inactive)	> 100 µM (inactive)	> 100 µM (inactive)	63 µM (inactive)	> 100 µM (inactive)	> 100 µM (inactive)	> 100 µM (inactive)	–
COc1cc([C@H]2c3cc4c(cc3[C@H](NCc3ccc(F)cc3)C3COC(=O)[C@H]32)OCO4)cc(OC)c1O (stereo partly drawn)	1.84 µM (inactive)	–	7.59 µM (inactive)	2.29	11.2 µM (inactive)	4.36 µM (inactive)	3.79 µM (inactive)	0.352 µM (active)	4.3 µM (inactive)	15.6 µM (inactive)	2.44 µM (inactive)	1.87 µM (inactive)	4.13 µM (inactive)	2.22 µM (inactive)	15.4 µM (inactive)	6.19 µM (inactive)	–
CC(=O)c1ccc(NC(=O)C(=O)C(C(=O)c2ccc(Cl)c(Cl)c2)C2OC(=O)c3ccccc32)cc1 (stereo not drawn)	16.1 µM (inactive)	14.6 µM (inactive)	13 µM (inactive)	16.8	25.3 µM (inactive)	23.3 µM (inactive)	5.97 µM (inactive)	13.2 µM (inactive)	12.5 µM (inactive)	–	25.5 µM (inactive)	21.2 µM (inactive)	24.4 µM (inactive)	13.6 µM (inactive)	31.4 µM (inactive)	40 µM (inactive)	> 100 µM (inactive)
COc1c(C)cc(O)cc1C=O	> 100 µM (inactive)	> 100 µM (inactive)	–	> 100	> 100 µM (inactive)	> 100 µM (inactive)	> 100 µM (inactive)	> 100 µM (inactive)	> 100 µM (inactive)	> 100 µM (inactive)	> 100 µM (inactive)	> 100 µM (inactive)	> 100 µM (inactive)	–	> 100 µM (inactive)	> 100 µM (inactive)	–
COc1ccc(-c2cnoc2-c2ccc(OC)c(OC)c2)cc1OC	1.64 µM (inactive)	2.35 µM (inactive)	1.26 µM (inactive)	0.4	1.27 µM (inactive)	0.445 µM (active)	2.15 µM (inactive)	2.48 µM (inactive)	3.1 µM (inactive)	1.08 µM (active)	4.15 µM (inactive)	0.414 µM (active)	4.46 µM (inactive)	1.24 µM (inactive)	3.85 µM (inactive)	1.31 µM (inactive)	0.318 µM (active)
CCN(CC)C(=O)CNC(=O)OC(C)(C)C	> 100 µM (inactive)	> 100 µM (inactive)	> 100 µM (inactive)	> 100	> 100 µM (inactive)	> 100 µM (inactive)	> 100 µM (inactive)	> 100 µM (inactive)	> 100 µM (inactive)	> 100 µM (inactive)	> 100 µM (inactive)	> 100 µM (inactive)	> 100 µM (inactive)	> 100 µM (inactive)	> 100 µM (inactive)	> 100 µM (inactive)	–
Cc1c2n(c(=O)[nH]c1=O)C1OC(CO)C(O2)C1N=[N+]=[N-] (stereo not drawn)	> 100 µM (inactive)	> 100 µM (inactive)	> 100 µM (inactive)	> 100	> 100 µM (inactive)	> 100 µM (inactive)	–	> 100 µM (inactive)	> 100 µM (inactive)	> 100 µM (inactive)	> 100 µM (inactive)	> 100 µM (inactive)	> 100 µM (inactive)	> 100 µM (inactive)	> 100 µM (inactive)	> 100 µM (inactive)	> 100 µM (inactive)
COc1ccc(C2S/C(=C\c3cccc(OC)c3)C(=O)N2NC(=O)Cc2ccccc2)cc1 (stereo not drawn)	> 100 µM (inactive)	> 100 µM (inactive)	> 100 µM (inactive)	> 100	> 100 µM (inactive)	> 100 µM (inactive)	> 100 µM (inactive)	> 100 µM (inactive)	> 100 µM (inactive)	> 100 µM (inactive)	–	> 100 µM (inactive)	> 100 µM (inactive)	> 100 µM (inactive)	> 100 µM (inactive)	–	> 100 µM (inactive)
Cc1cnc2c(C)ccc([N+](=O)[O-])c2c1NCCCN(C)C	> 100 µM (inactive)	> 100 µM (inactive)	> 100 µM (inactive)	> 100	> 100 µM (inactive)	> 100 µM (inactive)	73.6 µM (inactive)	> 100 µM (inactive)	> 100 µM (inactive)	> 100 µM (inactive)	> 100 µM (inactive)	> 100 µM (inactive)	> 100 µM (inactive)	31.5 µM (inactive)	> 100 µM (inactive)	> 100 µM (inactive)	> 100 µM (inactive)
CC(=O)NC1=C(NCCN(C)C)C(=O)c2ccccc2C1=O	18.1 µM (inactive)	–	8.34 µM (inactive)	9.51	13.8 µM (inactive)	12.4 µM (inactive)	7.62 µM (inactive)	12.8 µM (inactive)	11.3 µM (inactive)	15.3 µM (inactive)	17.6 µM (inactive)	16 µM (inactive)	> 50 µM (inactive)	11.5 µM (inactive)	27.8 µM (inactive)	32.9 µM (inactive)	41.3 µM (inactive)
CCc1cc(C(=O)OC)cn1C(=N)c1ccc(Cl)cc1	> 100 µM (inactive)	> 100 µM (inactive)	> 100 µM (inactive)	> 100	> 100 µM (inactive)	> 100 µM (inactive)	> 100 µM (inactive)	> 100 µM (inactive)	> 100 µM (inactive)	> 100 µM (inactive)	> 100 µM (inactive)	> 100 µM (inactive)	> 100 µM (inactive)	> 100 µM (inactive)	> 100 µM (inactive)	> 100 µM (inactive)	–
COC(=O)C(=O)C(C(=O)C=C(C)C)C(=O)C(=O)Nc1cc(C(F)(F)F)ccc1Cl (stereo not drawn)	> 100 µM (inactive)	> 100 µM (inactive)	> 100 µM (inactive)	> 100	> 100 µM (inactive)	42.9 µM (inactive)	> 100 µM (inactive)	> 100 µM (inactive)	> 100 µM (inactive)	> 100 µM (inactive)	> 100 µM (inactive)	–	> 100 µM (inactive)	> 100 µM (inactive)	> 100 µM (inactive)	> 100 µM (inactive)	17.7 µM (inactive)
CC1=Nc2ccccc2NC(c2ccoc2)C1 (stereo not drawn)	> 100 µM (inactive)	> 100 µM (inactive)	> 100 µM (inactive)	> 100	> 100 µM (inactive)	> 100 µM (inactive)	> 100 µM (inactive)	> 100 µM (inactive)	> 100 µM (inactive)	> 100 µM (inactive)	> 100 µM (inactive)	> 100 µM (inactive)	> 100 µM (inactive)	> 100 µM (inactive)	> 100 µM (inactive)	> 100 µM (inactive)	> 100 µM (inactive)
CCCCCCCCOCC(COC(=O)CCCCCCC)OC(=O)CCCCCCC (stereo not drawn)	> 100 µM (inactive)	> 100 µM (inactive)	> 100 µM (inactive)	> 100	> 100 µM (inactive)	> 100 µM (inactive)	> 100 µM (inactive)	> 100 µM (inactive)	> 100 µM (inactive)	–	> 100 µM (inactive)	> 100 µM (inactive)	> 100 µM (inactive)	> 100 µM (inactive)	> 100 µM (inactive)	–	53 µM (inactive)
O=[N+]([O-])c1ccc(Sc2c3ccccc3nc3ccccc23)cc1	> 100 µM (inactive)	> 100 µM (inactive)	> 100 µM (inactive)	> 100	> 100 µM (inactive)	> 100 µM (inactive)	> 100 µM (inactive)	> 100 µM (inactive)	> 100 µM (inactive)	> 100 µM (inactive)	> 100 µM (inactive)	> 100 µM (inactive)	> 100 µM (inactive)	> 100 µM (inactive)	–	> 100 µM (inactive)	–
Cc1cc(N(CCC#N)CCC#N)ccc1/N=N/c1ccc(Br)cc1	13.2 µM (inactive)	16.4 µM (inactive)	36.8 µM (inactive)	5.56	> 100 µM (inactive)	23.8 µM (inactive)	53.6 µM (inactive)	> 100 µM (inactive)	> 37.6 µM (inactive)	15.1 µM (inactive)	16.1 µM (inactive)	> 48.6 µM (inactive)	27.7 µM (inactive)	17.5 µM (inactive)	14.3 µM (inactive)	26.8 µM (inactive)	–
